# Source: patent publication US4740233A, “Substituted 1,2,4-triazolo[1,5-a]-pyrimidine-2-sulfonamides and compositions and methods of controlling undesired vegetation and suppressing the nitrification of ammonium nitrogen in soil” (The Dow Chemical Company, priority 1986, dated 1988)
# Test system: nitrification of ammonium nitrogen
# Experiment: Suppression of nitrification of ammonium nitrogen in soil
# Details: 27° C.
# Protocol: A sufficient volume of water was added to 20 g of the soil in a wide-mouth, screw-cap, 4-ounce, glass bottle, such that the moisture content of the mixture was made equal to the 1/3 bar tension value for that soil. The mixture was thoroughly mixed before sealing. […] Acetone slows the rate of soil nitrification and its concentration must be carefully controlled. Single samples of each test chemical were incubated for two weeks at 27° C.
# The experiment comprised the following types of samples:
# The soil samples were analyzed as follows: Sufficient ammonium sulfate extracting solution was added to the sample, such that the total volume of added water was 50 ml (included water added during sample preparation). The capped mixture was shaken 10 minutes to solubilize nitrate and the soil particulates were allowed to settle. The nitrate concentration in the water phase was determined with a nitrate-specific ion electrode such as Orion Model 93-07.
# The non-nitrate nitrogen remaining (% NH4 -N remaining) in the soil after two weeks (performance value) was calculated as follows: [formula]
SMILES,% NH4-N Remaining After 2 Weeks Incubation (0.06 ppm),% NH4-N Remaining After 2 Weeks Incubation (0.25 ppm),% NH4-N Remaining After 2 Weeks Incubation (1 ppm),% NH4-N Remaining After 2 Weeks Incubation (4 ppm),% NH4-N Remaining After 2 Weeks Incubation (0.01 ppm),% NH4-N Remaining After 2 Weeks Incubation (0.1 ppm),% NH4-N Remaining After 2 Weeks Incubation (10 ppm),other results
Cc1cc(C)n2nc(S(=O)(=O)Nc3c(C)cccc3C(=O)OCCN(C)C)nc2n1 [Compound 73],26%,47%,41%,62%,,,,
Cc1cc(C)n2nc(S(=O)(=O)Nc3ccccc3C(=O)O)nc2n1 [Compound 11],,,0%,,0%,0%,5%,
COC(=O)c1cc2ccccc2cc1NS(=O)(=O)c1nc2nc(C)cc(C)n2n1 [Compound 245],0%,0%,0%,30%,,,,
Cc1cc(C)n2nc(S(=O)(=O)Nc3c(C)cccc3Br)nc2n1 [Compound 58],92%,48%,58%,80%,,,,
Cc1cc(C)n2nc(S(=O)(=O)Nc3cccc(Cl)c3C)nc2n1 [Compound 68],0%,20%,16%,57%,,,,
Cc1cc(C)n2nc(S(=O)(=O)Nc3c(C)cccc3C(=O)OC(C)C)nc2n1 [Compound 64],19%,43%,62%,81%,,,,
Cc1cc(C)n2nc(S(=O)(=O)Nc3cc(C(F)(F)F)ccc3S(=O)(=O)N(C)C)nc2n1 [Compound 28],,,42%,,0%,5%,66%,
Cc1cc(C)n2nc(S(=O)(=O)Nc3ccncc3)nc2n1 [Compound 253],,,0%,,0%,5%,17%,
CCOc1cnc2nc(S(=O)(=O)Nc3c(C)cccc3Cl)nn2c1 [Compound 202],0%,0%,0%,32%,,,,
Cc1cc(C)n2nc(S(=O)(=O)Nc3c(C)cccc3C(N)=O)nc2n1 [Compound 61],,,,,,,100%,% NH4-N Remaining After 2 Weeks Incubation (0.6 ppm): 20%; % NH4-N Remaining After 2 Weeks Incubation (1.25 ppm): 34%; % NH4-N Remaining After 2 Weeks Incubation (2.5 ppm): 65%; % NH4-N Remaining After 2 Weeks Incubation (5 ppm): 89%
Cc1cc(C)n2nc(S(=O)(=O)Nc3ccccc3S(=O)(=O)c3ccccc3)nc2n1 [Compound 96],,,,,,,100%,% NH4-N Remaining After 2 Weeks Incubation (0.6 ppm): 0%; % NH4-N Remaining After 2 Weeks Incubation (1.25 ppm): 0%; % NH4-N Remaining After 2 Weeks Incubation (2.5 ppm): 7%; % NH4-N Remaining After 2 Weeks Incubation (5 ppm): 42%
COC(=O)c1ccc(C(=O)OC)c(NS(=O)(=O)c2nc3nc(C)cc(C)n3n2)c1 [Compound 102],,,,,,,44%,% NH4-N Remaining After 2 Weeks Incubation (0.6 ppm): 0%; % NH4-N Remaining After 2 Weeks Incubation (1.25 ppm): 0%; % NH4-N Remaining After 2 Weeks Incubation (2.5 ppm): 0%; % NH4-N Remaining After 2 Weeks Incubation (5 ppm): 24%
Cc1cc(C)n2nc(S(=O)(=O)Nc3nccs3)nc2n1 [Compound 256],,,10%,,20%,13%,48%,
Cc1cc(C)n2nc(S(=O)(=O)Nc3ncccc3Cl)nc2n1 [Compound 252],,,38%,,0%,0%,82%,
Cc1cc(C)n2nc(S(=O)(=O)Nc3c(Cl)cccc3COCc3ccccc3)nc2n1 [Compound 92],0%,4%,0%,25%,,,,
Cc1cc(C)n2nc(S(=O)(=O)Nc3ccccc3Oc3ccc(C(F)(F)F)cc3Cl)nc2n1 [Compound 97],67%,0%,3%,19%,,,,
Cc1cc(C)n2nc(S(=O)(=O)Nc3cc(Cl)cc(Cl)c3)nc2n1 [Compound 24],,,65%,,0%,28%,83%,
Cc1cc(C)n2nc(S(=O)(=O)Nc3ccccc3SC(C)(C)C)nc2n1 [Compound 80],0%,0%,20%,43%,,,,

SMILES,% NH4-N Remaining After 2 Weeks Incubation (0.06 ppm),% NH4-N Remaining After 2 Weeks Incubation (0.25 ppm),% NH4-N Remaining After 2 Weeks Incubation (1 ppm),% NH4-N Remaining After 2 Weeks Incubation (4 ppm),% NH4-N Remaining After 2 Weeks Incubation (0.01 ppm),% NH4-N Remaining After 2 Weeks Incubation (0.1 ppm),% NH4-N Remaining After 2 Weeks Incubation (10 ppm),other results
CCOC(=O)CN(c1c(Cl)cccc1Cl)S(=O)(=O)c1nc2nc(C)cc(C)n2n1 [Compound 264],0%,1%,26%,37%,,,,
Cc1cc(C)n2nc(S(=O)(=O)Nc3ccc(Cl)cc3)nc2n1 [Compound 18],,,5%,,0%,0%,50%,
CNc1ccccc1NS(=O)(=O)c1nc2nc(C)cc(C)n2n1 [Compound 5],,,1%,,0%,0%,28%,
Cc1cc(C)n2nc(S(=O)(=O)Nc3ccccc3Oc3ncc(C(F)(F)F)cc3Cl)nc2n1 [Compound 99],0%,,0%,57%,,,,
COC(=O)c1sccc1NS(=O)(=O)c1nc2nc(C)cc(C)n2n1 [Compound 257],,,0%,,0%,0%,58%,
Cc1cc(C)n2nc(S(=O)(=O)Nc3ccccc3O)nc2n1 [Compound 3],,,0%,,0%,0%,25%,
Cc1cc(Cl)c(NS(=O)(=O)c2nc3nc(C)cc(C)n3n2)c(Cl)c1 [Compound 47],,,73%,,0%,40%,92%,
Cc1cc(C)n2nc(S(=O)(=O)Nc3nc4c(Cl)cccc4s3)nc2n1 [Compound 258],,,23%,,0%,0%,78%,
Cc1cc(C)n2nc(S(=O)(=O)Nc3ncc(Cl)cc3Cl)nc2n1 [Compound 251],,,0%,,0%,0%,29%,
CSc1cccc(C)c1NS(=O)(=O)c1nc2nc(C)ccn2n1 [Compound 150],83%,74%,91%,93%,,,,
Cc1cc(C)n2nc(S(=O)(=O)Nc3c(C)cccc3C(=O)Oc3ccccc3)nc2n1 [Compound 75],25%,61%,67%,86%,,,,
Cc1cc(C)n2nc(S(=O)(=O)Nc3ccccc3SC(F)(F)C(F)F)nc2n1 [Compound 59],11%,33%,51%,66%,,,,
Cc1cc(C)n2nc(S(=O)(=O)Nc3ccc(Cl)cc3Cl)nc2n1 [Compound 20],0%,0%,8%,,,,,% NH4-N Remaining After 2 Weeks Incubation (0.125 ppm): 0%; % NH4-N Remaining After 2 Weeks Incubation (0.5 ppm): 5%
CSc1ccccc1NS(=O)(=O)c1nc2ncc(Cl)cn2n1 [Compound 115],37%,41%,64%,86%,,,,
Cc1ccn2nc(S(=O)(=O)Nc3c(C)cccc3Br)nc2n1 [Compound 148],,,,,,,93%,% NH4-N Remaining After 2 Weeks Incubation (0.6 ppm): 69%; % NH4-N Remaining After 2 Weeks Incubation (1.25 ppm): 75%; % NH4-N Remaining After 2 Weeks Incubation (2.5 ppm): 81%; % NH4-N Remaining After 2 Weeks Incubation (5 ppm): 89%
Cc1cc(C)n2nc(S(=O)(=O)Nc3ccccc3S(=O)(=O)C(F)(F)F)nc2n1 [Compound 57],2%,17%,45%,69%,,,,
Cc1nc2nc(S(=O)(=O)Nc3c(Cl)cccc3Cl)nn2c(C)c1Cl [Compound 200],0%,31%,50%,60%,,,,
